Source: publication PMC5615155 (Toxicology Reports, 2017)

Assay: dose range-finding developmental toxicity study
Assay type: in vivo, Crl:CD(SD) rats

Cc1cc(C(=O)NC(C)(C)COc2cccc3c2C(N)=NS(=O)(=O)N3)cc(C)n1.O=S(=O)(O)O [S8069]
external developmental malformations or variations in fetuses (125–1000 mg/kg bw/day): No external developmental malformations or variations were observed | Findings (125–1000 mg/kg bw/day oral gavage, GD 6–20): No maternal toxicity or effect on intrauterine growth up to 1000 mg/kg bw/day
